We go through 2 compounds from patent publication US20200239530A1, “COMPOUNDS AND METHODS OF MODULATING PROTEIN DEGRADATION” (Vividion Therapeutics, Inc., priority 2017, published 2020).

The structures appear in SMILES notation.

Assay [1] deals with T1, UBR5 E3 ubiquitin-protein ligase UBR5 (Homo sapiens, UniProt O95071).
T1 construct: Cells were resuspended in cold PBS on ice and sonicated with a probe sonicator to achieve lysis; endogenous in cells
The assay is described as follows: Cysteine liganding, probe competition. Type of assay: binding. An outline of the steps: (§1)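 Read-out is loss of desthiobiotin iodoacetamide labelling at cysteines, measured on streptavidin-enriched tryptic peptides. Compound preincubation ran 1 hr at 25° C in PBS lysate holding 5 mg/ml proteome before the probe was added.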

Assay [2] concerns the target T2, NOP56 Nucleolar protein 56 (Homo sapiens, UniProt O00567).
T2 construct: Cells were resuspended in cold PBS on ice and sonicated with a probe sonicator to achieve lysis; endogenous in cells
T2 sequence (O00567 1-594): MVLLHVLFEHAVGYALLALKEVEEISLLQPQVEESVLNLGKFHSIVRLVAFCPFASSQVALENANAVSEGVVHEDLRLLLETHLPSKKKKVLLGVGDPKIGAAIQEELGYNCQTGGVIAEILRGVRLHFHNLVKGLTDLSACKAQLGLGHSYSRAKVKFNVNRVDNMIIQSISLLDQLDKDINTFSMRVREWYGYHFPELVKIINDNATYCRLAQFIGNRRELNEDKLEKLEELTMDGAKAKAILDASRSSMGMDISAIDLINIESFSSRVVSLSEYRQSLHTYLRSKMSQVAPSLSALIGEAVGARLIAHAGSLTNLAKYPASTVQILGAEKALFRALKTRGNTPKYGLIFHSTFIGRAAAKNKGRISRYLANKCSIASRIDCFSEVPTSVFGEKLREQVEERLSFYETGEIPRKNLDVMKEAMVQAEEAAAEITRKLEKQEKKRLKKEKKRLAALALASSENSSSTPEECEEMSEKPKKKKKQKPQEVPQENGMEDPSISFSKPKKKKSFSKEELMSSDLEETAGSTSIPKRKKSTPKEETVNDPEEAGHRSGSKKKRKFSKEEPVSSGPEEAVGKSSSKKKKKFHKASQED
The assay is described as follows: Cysteine liganding, probe competition. Type of assay: binding. An outline of the steps: as §1

Setting [3] is: uniprot O00567, in % (unit assumed).

T1 sequence (O95071 whole entry): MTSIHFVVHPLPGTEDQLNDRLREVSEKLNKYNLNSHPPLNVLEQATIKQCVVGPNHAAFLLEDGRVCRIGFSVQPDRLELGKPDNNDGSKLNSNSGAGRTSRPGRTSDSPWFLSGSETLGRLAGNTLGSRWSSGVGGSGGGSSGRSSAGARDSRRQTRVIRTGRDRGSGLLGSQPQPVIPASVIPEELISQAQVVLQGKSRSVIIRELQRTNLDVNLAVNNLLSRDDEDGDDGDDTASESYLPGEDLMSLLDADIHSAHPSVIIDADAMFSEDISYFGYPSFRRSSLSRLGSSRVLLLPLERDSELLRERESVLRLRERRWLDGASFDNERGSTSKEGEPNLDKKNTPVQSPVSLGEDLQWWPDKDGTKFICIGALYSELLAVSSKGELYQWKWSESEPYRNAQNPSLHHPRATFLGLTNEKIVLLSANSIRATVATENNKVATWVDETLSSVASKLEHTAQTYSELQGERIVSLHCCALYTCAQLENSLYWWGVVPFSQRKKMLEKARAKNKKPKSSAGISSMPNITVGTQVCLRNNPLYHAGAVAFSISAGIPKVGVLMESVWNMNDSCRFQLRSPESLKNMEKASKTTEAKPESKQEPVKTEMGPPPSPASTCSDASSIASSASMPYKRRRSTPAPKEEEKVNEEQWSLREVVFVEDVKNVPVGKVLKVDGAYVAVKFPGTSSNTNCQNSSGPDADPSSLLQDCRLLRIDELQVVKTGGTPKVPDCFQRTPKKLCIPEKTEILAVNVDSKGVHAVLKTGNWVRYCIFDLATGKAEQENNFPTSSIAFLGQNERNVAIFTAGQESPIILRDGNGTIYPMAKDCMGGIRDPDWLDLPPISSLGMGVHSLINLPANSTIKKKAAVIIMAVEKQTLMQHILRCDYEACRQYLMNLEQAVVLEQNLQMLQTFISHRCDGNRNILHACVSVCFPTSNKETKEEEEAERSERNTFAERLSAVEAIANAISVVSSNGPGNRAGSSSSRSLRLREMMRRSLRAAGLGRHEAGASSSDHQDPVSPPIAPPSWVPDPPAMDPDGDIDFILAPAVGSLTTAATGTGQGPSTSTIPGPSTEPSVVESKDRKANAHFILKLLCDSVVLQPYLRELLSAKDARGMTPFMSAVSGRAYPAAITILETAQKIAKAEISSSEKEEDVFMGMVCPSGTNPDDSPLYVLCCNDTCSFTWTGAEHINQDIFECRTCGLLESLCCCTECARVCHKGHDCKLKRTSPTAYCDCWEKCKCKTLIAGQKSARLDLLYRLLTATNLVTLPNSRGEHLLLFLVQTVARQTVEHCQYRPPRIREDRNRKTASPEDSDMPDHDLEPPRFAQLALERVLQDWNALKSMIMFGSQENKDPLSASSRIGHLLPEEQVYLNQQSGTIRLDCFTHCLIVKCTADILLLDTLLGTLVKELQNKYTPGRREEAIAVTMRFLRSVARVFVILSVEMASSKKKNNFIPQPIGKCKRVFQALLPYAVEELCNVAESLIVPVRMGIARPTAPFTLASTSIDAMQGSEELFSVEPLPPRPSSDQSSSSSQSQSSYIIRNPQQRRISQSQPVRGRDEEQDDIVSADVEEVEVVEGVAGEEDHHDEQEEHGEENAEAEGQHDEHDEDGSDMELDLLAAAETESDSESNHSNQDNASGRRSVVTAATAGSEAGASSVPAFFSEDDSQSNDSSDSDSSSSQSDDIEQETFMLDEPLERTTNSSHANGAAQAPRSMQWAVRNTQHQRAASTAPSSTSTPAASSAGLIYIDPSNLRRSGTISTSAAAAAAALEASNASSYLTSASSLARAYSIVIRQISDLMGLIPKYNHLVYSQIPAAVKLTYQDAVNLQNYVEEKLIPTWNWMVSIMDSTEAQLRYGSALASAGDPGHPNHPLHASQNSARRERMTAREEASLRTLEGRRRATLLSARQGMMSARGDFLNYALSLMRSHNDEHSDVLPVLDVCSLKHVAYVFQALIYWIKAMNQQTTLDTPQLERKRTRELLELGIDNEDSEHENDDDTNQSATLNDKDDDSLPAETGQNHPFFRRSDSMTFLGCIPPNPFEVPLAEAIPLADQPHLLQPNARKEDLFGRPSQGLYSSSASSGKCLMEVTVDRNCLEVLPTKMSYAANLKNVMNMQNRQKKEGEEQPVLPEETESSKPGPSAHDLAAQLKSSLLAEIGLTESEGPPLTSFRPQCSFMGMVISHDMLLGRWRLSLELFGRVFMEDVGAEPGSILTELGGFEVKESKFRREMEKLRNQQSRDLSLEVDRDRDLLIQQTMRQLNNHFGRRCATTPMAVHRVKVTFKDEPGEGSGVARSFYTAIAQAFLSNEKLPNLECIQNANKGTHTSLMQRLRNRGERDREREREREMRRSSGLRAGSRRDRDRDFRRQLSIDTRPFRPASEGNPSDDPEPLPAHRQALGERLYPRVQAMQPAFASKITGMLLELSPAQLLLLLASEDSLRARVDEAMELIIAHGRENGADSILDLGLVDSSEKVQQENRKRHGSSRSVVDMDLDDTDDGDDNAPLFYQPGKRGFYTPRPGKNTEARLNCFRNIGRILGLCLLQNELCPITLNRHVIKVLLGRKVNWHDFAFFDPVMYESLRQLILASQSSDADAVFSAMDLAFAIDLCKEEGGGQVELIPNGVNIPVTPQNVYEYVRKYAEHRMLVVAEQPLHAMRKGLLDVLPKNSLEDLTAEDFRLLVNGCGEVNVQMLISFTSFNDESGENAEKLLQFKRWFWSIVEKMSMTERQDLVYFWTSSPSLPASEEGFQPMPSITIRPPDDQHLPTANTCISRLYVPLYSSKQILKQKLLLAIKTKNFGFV

Regarding `COc1ccc2c(c1)CCCN2C(=O)CCl` [KB02], the Liganded result in assay [1] (UBR5 Res# 2314, uniprot O95071) was “YES”; in assay [2] (NOP56 Res# 211, uniprot O00567), “YES”.
For the compound `O=C(CCl)Nc1cc(C(F)(F)F)cc(C(F)(F)F)c1` [KBO3], in assay [1] (uniprot O95071), the 100 ave is listed as −2.4, the “500 Max” value is reported as 33.0 and the 500 ave is on record as 26.8. In assay [1] (uniprot O95071, unit assumed), this compound yielded a 100 Max of 9.2%. In assay [2] (uniprot O00567), this compound displayed a 100 ave of 27.36 and a 500 ave of 68.12. Moreover, in assay [2] (setting [3]), the “100 Max” value is on record as 51.21 and the “500 Max” value is reported as 68.12.
